Test results published in patent publication US20080194574A1, “Pyrazine Derivatives As Effective Compounds Against Infectious Diseases” (AXXIMA PHARMACEUTICALS AG, priority 2003, published 2008).

biological target: T1, viral kinase pUL-97 (Human cytomegalovirus, UniProt P16788); assay: UL97 kinase assay on Immobilon plate; format: biochemical; conditions: inhibition of UL 97 kinase activity; class by IC50 / % inhibition at 10 μM or 100 μM; read-out: Activity Class [A, B, C]
T1 construct: The pUL-97 gene was cloned into a baculovirus vector; GST (glutathione S-transferase) (N); made in house; host or cells: Sf9 insect cells, baculovirus
How it was run: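 Compound was titrated into a radiometric reaction of Sf9-expressed GST-UL97 kinase, incubated 1 h at 30 °C in Tris-HCl pH 7.5/MnCl2/DTT buffer before EDTA stop. MBP substrate and ATP (3 μM in the added assay buffer) were supplied with γ-[33P]ATP. Labelled product bound to Immobilon filter was washed and counted by scintillation.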

T1 sequence (P16788 whole entry): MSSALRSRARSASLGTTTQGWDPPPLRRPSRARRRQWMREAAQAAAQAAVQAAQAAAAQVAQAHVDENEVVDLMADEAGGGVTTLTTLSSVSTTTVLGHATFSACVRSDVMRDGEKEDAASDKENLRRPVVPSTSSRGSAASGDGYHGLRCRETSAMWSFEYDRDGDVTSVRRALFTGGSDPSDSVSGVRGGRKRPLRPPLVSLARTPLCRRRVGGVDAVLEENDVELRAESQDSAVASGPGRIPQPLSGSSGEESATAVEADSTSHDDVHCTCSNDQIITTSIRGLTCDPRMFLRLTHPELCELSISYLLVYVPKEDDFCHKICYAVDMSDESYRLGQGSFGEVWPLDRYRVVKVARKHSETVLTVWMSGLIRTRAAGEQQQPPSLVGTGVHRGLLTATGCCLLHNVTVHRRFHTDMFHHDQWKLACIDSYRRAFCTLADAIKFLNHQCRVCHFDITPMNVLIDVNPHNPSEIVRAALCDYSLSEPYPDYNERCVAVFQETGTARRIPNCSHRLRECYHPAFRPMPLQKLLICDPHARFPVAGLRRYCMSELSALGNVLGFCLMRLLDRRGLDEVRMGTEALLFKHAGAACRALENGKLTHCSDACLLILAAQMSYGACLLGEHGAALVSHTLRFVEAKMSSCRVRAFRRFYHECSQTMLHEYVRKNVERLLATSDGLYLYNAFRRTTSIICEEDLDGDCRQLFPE

| Structure (SMILES) | IC50 |
| --- | --- |
| Fc1ccc(N2CCN(c3cncc(-c4ccc5ccccc5c4)n3)CC2)c(F)c1 [compound 199, 4-(2,4-Difluoro-phenyl)-6′-naphthalen-2-yl-3,4,5,6-tetrahydro-2H-[1,2′]bipyrazinyl] | 1 to 10 µM |
| OCc1ccc(-c2cncc(N3CCN(c4ccc(F)cc4F)CC3)n2)cc1 [compound 200, {4-[4-(2,4-Difluoro-phenyl)-3,4,5,6-tetrahydro-2H-[1,2′]bipyrazinyl-6′-yl]-phenyl}-methanol] | 10 to 100 µM |
| Fc1ccc(N2CCN(c3cncc(-c4ccoc4)n3)CC2)c(F)c1 [compound 201, 4-(2,4-Difluoro-phenyl)-6′-furan-3-yl-3,4,5,6-tetrahydro-2H-[1,2′]bipyrazinyl] | 1 to 10 µM |
| CCOc1ccc(-c2cncc(N3CCN(c4ccc(F)cc4F)CC3)n2)cc1 [compound 203, 4-(2,4-Difluoro-phenyl)-6′-(4-ethoxy-phenyl)-3,4,5,6-tetrahydro-2H-[1,2′]bipyrazinyl] | 10 to 100 µM |
| CC(=O)c1ccc(N2CCN(c3cncc(-c4ccc(C(C)(C)C)cc4)n3)CC2)cc1 [compound 204, 1-{4-[6′-(4-tert-Butyl-phenyl)-2,3,5,6-tetrahydro-[1,2′]bipyrazinyl-4-yl]-phenyl}-ethanone] | 10 to 100 µM |
| COc1ccc(-c2cncc(N3CCN(c4ccc(C(C)=O)cc4)CC3)n2)cc1F [compound 206, 1-{4-[6′-(3-Fluoro-4-methoxy-phenyl)-2,3,5,6-tetrahydro-[1,2′]bipyrazinyl-4-yl]-phenyl}-ethanone] | 1 to 10 µM |
| CCOc1ccc(-c2cncc(N3CCN(c4ccc(C(C)=O)cc4)CC3)n2)cc1 [compound 207, 1-{4-[6′-(4-Ethoxy-phenyl)-2,3,5,6-tetrahydro-[1,2′]bipyrazinyl-4-yl]-phenyl}-ethanone] | 10 to 100 µM |
| Cc1cc(C)cc(-c2cncc(N3CCN(c4ccc(F)cc4F)CC3)n2)c1 [compound 209, 4-(2,4-Difluoro-phenyl)-6′-(3,5-dimethyl-phenyl)-3,4,5,6-tetrahydro-2H-[1,2′]bipyrazinyl] | 10 to 100 µM |
| Fc1ccc(N2CCN(c3cncc(-c4ccc(C(F)(F)F)cc4)n3)CC2)c(F)c1 [compound 210, 4-(2,4-Difluoro-phenyl)-6′-(4-trifluoromethyl-phenyl)-3,4,5,6-tetrahydro-2H-[1,2′]bipyrazinyl] | 1 to 10 µM |

More lines, now with the values ahead:

| IC50 | Structure (SMILES) |
| --- | --- |
| 1 to 10 µM | Fc1ccccc1N1CCN(c2cncc(-c3ccc(C(F)(F)F)cc3)n2)CC1 [compound 197, 4-(2-Fluoro-phenyl)-6′-(4-trifluoromethyl-phenyl)-3,4,5,6-tetrahydro-2H-[1,2′]bipyrazinyl] |
| 10 to 100 µM | Fc1cccc(-c2cncc(N3CCN(c4ccccc4F)CC3)n2)c1 [compound 198, 4-(2-Fluoro-phenyl)-6′-(3-fluoro-phenyl)-3,4,5,6-tetrahydro-2H-[1,2′]bipyrazinyl] |
| 10 to 100 µM | OCc1ccccc1-c1cncc(N2CCN(c3ccc(F)cc3F)CC2)n1 [compound 202, {2-[4-(2,4-Difluoro-phenyl)-3,4,5,6-tetrahydro-2H-[1,2′]bipyrazinyl-6′-yl]-phenyl}-methanol] |
| 1 to 10 µM | CC(=O)c1ccc(N2CCN(c3cncc(-c4ccoc4)n3)CC2)cc1 [compound 205, 1-[4-(6′-Furan-3-yl-2,3,5,6-tetrahydro-[1,2′]bipyrazinyl-4-yl)-phenyl]-ethanone] |
| 1 to 10 µM | CN(C)c1ccc(-c2cncc(N3CCN(c4ccc(F)cc4F)CC3)n2)cc1 [compound 208] |
| 10 to 100 µM | Fc1cccc(-c2cncc(N3CCN(c4ccc(F)cc4F)CC3)n2)c1 [compound 211, 4-(2,4-Difluoro-phenyl)-6′-(3-fluoro-phenyl)-3,4,5,6-tetrahydro-2H-[1,2′]bipyrazinyl] |
| 10 to 100 µM | CCOc1ccccc1-c1cncc(N2CCN(c3ccc(C(C)=O)cc3)CC2)n1 [compound 212, 1-{4-[6′-(2-Ethoxy-phenyl)-2,3,5,6-tetrahydro-[1,2′]bipyrazinyl-4-yl]-phenyl}-ethanone] |
| 1 to 10 µM | COc1ccc2cc(-c3cncc(N4CCN(c5ccc(C(C)=O)cc5)CC4)n3)ccc2c1 [compound 213, 1-{4-[6′-(6-Methoxy-naphthalen-2-yl)-2,3,5,6-tetrahydro-[1,2′]bipyrazinyl-4-yl]-phenyl}-ethanone] |

same assay, conditions: inhibition of UL 97 kinase activity; class by IC50 / % inhibition at 10 or 100 μM; read-out: Activity Class [A, B, C]

| Structure (SMILES) | IC50 |
| --- | --- |
| CCOc1ccccc1-c1cncc(N2CCN(c3ccc(C)cc3)CC2)n1 [compound 175, 6′-(2-Ethoxy-phenyl)-4-p-tolyl-3,4,5,6-tetrahydro-2H-[1,2′]bipyrazinyl] | 10 to 100 µM |
| Cc1ccc(N2CCN(c3cncc(-c4ccc(N(C)C)cc4)n3)CC2)cc1 [compound 176, Dimethyl-[4-(4-p-tolyl-3,4,5,6-tetrahydro-2H-[1,2′]bipyrazinyl-6′-yl)-phenyl]-amine] | 10 to 100 µM |
| Cc1cc(C)cc(-c2cncc(N3CCN(c4ccc(F)cc4)CC3)n2)c1 [compound 179, 6′-(3,5-Dimethyl-phenyl)-4-(4-fluoro-phenyl)-3,4,5,6-tetrahydro-2H-[1,2′]bipyrazinyl] | 10 to 100 µM |
| Fc1ccc(N2CCN(c3cncc(-c4ccc(C(F)(F)F)cc4)n3)CC2)cc1 [compound 180, 4-(4-Fluoro-phenyl)-6′-(4-trifluoromethyl-phenyl)-3,4,5,6-tetrahydro-2H-[1,2′]bipyrazinyl] | 1 to 10 µM |
| CN(C)c1ccc(-c2cncc(N3CCN(c4cccc(Cl)c4)CC3)n2)cc1 [compound 182, {4-[4-(3-Chloro-phenyl)-3,4,5,6-tetrahydro-2H-[1,2′]bipyrazinyl-6′-yl]-phenyl}-dimethyl-amine] | 10 to 100 µM |
| COc1ccc2cc(-c3cncc(N4CCN(c5ccccc5OC)CC4)n3)ccc2c1 [compound 187, 6′-(6-Methoxy-naphthalen-2-yl)-4-(2-methoxy-phenyl)-3,4,5,6-tetrahydro-2H-[1,2′]bipyrazinyl] | 10 to 100 µM |
| COc1ccccc1N1CCN(c2cncc(-c3ccc(C(F)(F)F)cc3)n2)CC1 [compound 188, 4-(2-Methoxy-phenyl)-6′-(4-trifluoromethyl-phenyl)-3,4,5,6-tetrahydro-2H-[1,2′]bipyrazinyl] | 10 to 100 µM |
| Cc1cc(C)cc(-c2cncc(N3CCN(c4ccccc4)CC3)n2)c1 [compound 192, 6′-(3,5-Dimethyl-phenyl)-4-phenyl-3,4,5,6-tetrahydro-2H-[1,2′]bipyrazinyl] | 10 to 100 µM |
| Fc1cccc(-c2cncc(N3CCN(c4ccccc4)CC3)n2)c1 [compound 194, 6′-(3-Fluoro-phenyl)-4-phenyl-3,4,5,6-tetrahydro-2H-[1,2′]bipyrazinyl] | 10 to 100 µM |

Results, then the compound that gave them:

| IC50 | Structure (SMILES) |
| --- | --- |
| 10 to 100 µM | Cc1ccc(N2CCN(c3cncc(-c4cc(C)cc(C)c4)n3)CC2)cc1 [compound 177, 6′-(3,5-Dimethyl-phenyl)-4-p-tolyl-3,4,5,6-tetrahydro-2H-[1,2′]bipyrazinyl] |
| 1 to 10 µM | Cc1ccc(N2CCN(c3cncc(-c4ccc(C(F)(F)F)cc4)n3)CC2)cc1 [compound 178, 4-p-Tolyl-6′-(4-trifluoromethyl-phenyl)-3,4,5,6-tetrahydro-2H-[1,2′]bipyrazinyl] |
| 10 to 100 µM | Fc1ccc(N2CCN(c3cncc(-c4cccc(F)c4)n3)CC2)cc1 [compound 181, 4-(4-Fluoro-phenyl)-6′-(3-fluoro-phenyl)-3,4,5,6-tetrahydro-2H-[1,2′]bipyrazinyl] |
| 10 to 100 µM | COc1cccc(-c2cncc(N3CCN(c4cccc(Cl)c4)CC3)n2)c1OC [compound 183, 4-(3-Chloro-phenyl)-6′-(2,3-dimethoxy-phenyl)-3,4,5,6-tetrahydro-2H-[1,2′]bipyrazinyl] |
| 10 to 100 µM | FC(F)(F)c1ccc(-c2cncc(N3CCN(c4cccc(Cl)c4)CC3)n2)cc1 [compound 184, 4-(3-Chloro-phenyl)-6′-(4-trifluoromethyl-phenyl)-3,4,5,6-tetrahydro-2H-[1,2′]bipyrazinyl] |
| 10 to 100 µM | Clc1cccc(N2CCN(c3cncc(-c4ccccc4Oc4ccccc4)n3)CC2)c1 [compound 185, 4-(3-Chloro-phenyl)-6′-(2-phenoxy-phenyl)-3,4,5,6-tetrahydro-2H-[1,2′]bipyrazinyl] |
| 10 to 100 µM | COc1ccccc1N1CCN(c2cncc(-c3ccc(N(C)C)cc3)n2)CC1 [compound 186, {4-[4-(2-Methoxy-phenyl)-3,4,5,6-tetrahydro-2H-[1,2′]bipyrazinyl-6′-yl]-phenyl}-dimethyl-amine] |
| 10 to 100 µM | c1ccc(Oc2ccc(-c3cncc(N4CCN(c5ccccc5)CC4)n3)cc2)cc1 [compound 189, 6′-(4-Phenoxy-phenyl)-4-phenyl-3,4,5,6-tetrahydro-2H-[1,2′]bipyrazinyl] |
| 1 to 10 µM | CN(C)c1ccc(-c2cncc(N3CCN(c4ccccc4)CC3)n2)cc1 [compound 190, Dimethyl-[4-(4-phenyl-3,4,5,6-tetrahydro-2H-[1,2′]bipyrazinyl-6′-yl)-phenyl]-amine] |
| 10 to 100 µM | FC(F)(F)c1cc(-c2cncc(N3CCN(c4ccccc4)CC3)n2)cc(C(F)(F)F)c1 [compound 191, 6′-(3,5-Bis-trifluoromethyl-phenyl)-4-phenyl-3,4,5,6-tetrahydro-2H-[1,2′]bipyrazinyl] |
| 1 to 10 µM | FC(F)(F)c1ccc(-c2cncc(N3CCN(c4ccccc4)CC3)n2)cc1 [compound 193, 4-Phenyl-6′-(4-trifluoromethyl-phenyl)-3,4,5,6-tetrahydro-2H-[1,2′]bipyrazinyl] |
| 1 to 10 µM | CN(C)c1ccc(-c2cncc(N3CCN(c4ccccc4F)CC3)n2)cc1 [compound 195, {4-[4-(2-Fluoro-phenyl)-3,4,5,6-tetrahydro-2H-[1,2′]bipyrazinyl-6′-yl]-phenyl}-dimethyl-amine] |
| 10 to 100 µM | Fc1ccccc1N1CCN(c2cncc(-c3cc(C(F)(F)F)cc(C(F)(F)F)c3)n2)CC1 [compound 196, 6′-(3,5-Bis-trifluoromethyl-phenyl)-4-(2-fluoro-phenyl)-3,4,5,6-tetrahydro-2H-[1,2′]bipyrazinyl] |
